From US20230348394A1, “COMPOSITIONS AND METHODS FOR TREATING MUSCULAR DYSTROPHIES” (The Regents of the University of California, priority 2020, published 2023)
Where a name gives a salt, the structure may show the parent alone.

Tested on: SSPN transcript
Experiment: SSPN gene expression after systemic (subcutaneous) treatment of mdx mice
Assay type: in vivo
Details: 20 mg/kg daily subcutaneous, 13 days, quadriceps
Procedure: For the preliminary safety assessment of OT-9, we performed IP injections in 6 month old C57/B16 males. The mice were injected with 100 μl of vehicle (5% DMSO (Sigma), 95% PBS), 100 μl of 30 mg/kg of OT-9 in vehicle, or 100 μl of 50 mg/kg of OT-9 in vehicle (n=1 mouse per treatment). […] For assessment of activity, 20-weeks old male mdx littermates were injected in both tibialis anterior muscles with vehicle (5% DMSO, 95% PBS) or 86 μg of OT-9. Two mice were injected in both TAs with vehicle and three mice were injected in both TAs with 200 of OT-9 (9.4 mM solution containing 86 μg of OT-9). After 4 hours, the muscles were harvested and processed for gene expression analysis. For assessment of activity of OT-9m after local administration, 19-22-weeks old mdx males were injected in both tibialis anterior muscles with vehicle (5% DMSO, 95% PBS) or 3 mg/kg and 10 mg/kg of OT-9m. After 4 hours, the muscles were harvested and processed for gene expression analysis. […]
Followed by local administration, we evaluated ability of OT-9m to enhance SSPN expression in mdx mice after systemic treatment. […] We determined that mice overexpressing sarcospan by 1.5-fold were not rescued, while mice overexpressing sarcospan by 3-fold were rescued.

Compound | increase of SSPN transcript
COc1ccc2[nH]c(=O)c(C(=O)Nc3ccc(C(=O)N4CCCOCC4)cc3)cc2c1 [OT-9m, N-(4-(1,4-oxazepane-4-carbonyl)phenyl)-6-methoxy-2-oxo-1,2-dihydroquinoline-3-carboxamide] | 2 fold

Tested on: SSPN gene expression
Experiment: SSPN gene expression in tibialis anterior after intramuscular injection in mdx mice
Assay type: in vivo
Details: 3 mg/kg and 10 mg/kg intramuscular, 4 hours
Procedure: For the preliminary safety assessment of OT-9, we performed IP injections in 6 month old C57/B16 males. The mice were injected with 100 μl of vehicle (5% DMSO (Sigma), 95% PBS), 100 μl of 30 mg/kg of OT-9 in vehicle, or 100 μl of 50 mg/kg of OT-9 in vehicle (n=1 mouse per treatment). […] For assessment of activity, 20-weeks old male mdx littermates were injected in both tibialis anterior muscles with vehicle (5% DMSO, 95% PBS) or 86 μg of OT-9. Two mice were injected in both TAs with vehicle and three mice were injected in both TAs with 200 of OT-9 (9.4 mM solution containing 86 μg of OT-9). After 4 hours, the muscles were harvested and processed for gene expression analysis. For assessment of activity of OT-9m after local administration, 19-22-weeks old mdx males were injected in both tibialis anterior muscles with vehicle (5% DMSO, 95% PBS) or 3 mg/kg and 10 mg/kg of OT-9m. After 4 hours, the muscles were harvested and processed for gene expression analysis. For assessment of activity of OT-9m after systemic administration, 13-weeks old mdx males were injected subcutaneously with vehicle (4% PEG-200 in hydroxypropyl-b-cyclodextrin) or 20 mg/kg/day of OT-9m. After 13 days of treatment, the muscles were harvested and processed for gene expression analysis.
After the preliminary safety evaluation, we tested the ability of OT-9 to increase SSPN gene expression in vivo. […] Five 20-weeks old male mdx littermates were subjected to intramuscular injections in both tibialis anterior (TA) muscles. Two mice were injected in both TAs with vehicle and […] were injected with 3 mg/kg of OT-9 (molar equivalent of 9.4 mM used in the safety assessment). After 4 hours of treatment, the TAs were harvested and processed for gene expression analysis. […] After determination that OT-9 is capable of increasing SSPN gene expression in vivo, we evaluated one of its derivatives, OT-9m, for its ability to increase SSPN expression in mdx mice. OT-9m was chosen based on its improved activity in vitro compared to OT-9 (compare, Table 1, entries 1 & 14). To assess activity OT-9m in vivo after local administration, eleven 19-22 weeks old male mdx mice were subjected to intramuscular injections in both tibialis anterior (TA) muscles. Four mice were injected in both TAs with vehicle, three mice were injected with 3 mg/kg of OT-9m and four mice were injected with 10 mg/kg of OT-9m. After 4 hours of treatment, the TAs were harvested and processed for gene expression analysis.

Compound | SSPN gene expression in tibialis anterior
COc1ccc2[nH]c(=O)c(C(=O)Nc3ccc(C(=O)N4CCCOCC4)cc3)cc2c1 [OT-9m, N-(4-(1,4-oxazepane-4-carbonyl)phenyl)-6-methoxy-2-oxo-1,2-dihydroquinoline-3-carboxamide] | increased SSPN gene expression

Same assay, conditions: OT-9m 3 mg/kg and 10 mg/kg intramuscular, both TA, 4 hours

Compound | adverse effects after local injection
COc1ccc2[nH]c(=O)c(C(=O)Nc3ccc(C(=O)N4CCCOCC4)cc3)cc2c1 [OT-9m, N-(4-(1,4-oxazepane-4-carbonyl)phenyl)-6-methoxy-2-oxo-1,2-dihydroquinoline-3-carboxamide] | No adverse effects

Tested on: SSPN-HiBiT protein (sarcospan)
Experiment: C2C12 SSPN-HiBiT protein reporter assay (12-well and 384-well format)
Assay type: cell-based, murine
Details: SSPN-HiBiT C2C12 myotubes, 5 μM
Procedure: C2C12 SSPN-HiBiT myoblasts were seeded at 25,000 cells per well in 2 ml of growth media in 12 well-plates and incubated for 3 days. Upon reaching confluency, the growth media was replaced with 2 ml of differentiation media. At day 2 of differentiation, the media on the cells was replaced with 2 ml of differentiation media containing compounds at a final concentration of 5.5 μM in 0.06% DMSO. For vehicle control-treated cells, 0.06% DMSO was added to the cells. After 48 hrs the cells were washed with PBS and frozen for 2-24 hrs. The plates containing cells were thawed on ice and 100 μl of ice-cold modified RIPA buffer containing 1% Triton X-100, 0.05% DOC, 0.05% SDS, and Halt Protease Inhibitor was added to each well. Cells were scratched, transferred into 1.5 ml tubes, and centrifuged for 20 min at 16,000×g at 4° C. The cell lysates were transferred into new tubes. DC assay was performed on cell lysates to determine protein concentration. White walled, white bottom 384-well microplates (Greiner) were prefilled with 15 μl of PBS and 15 μl of cell lysates were added to each well in triplicate. Then 30 μl Nano-Glo HiBiT Lytic Detection working solution was added to each well and incubated for 30 min at RT with shaking. The luminescence was measured on the EnVision plate reader and the signal was normalized to protein concentration and signal from vehicle-treated controls.
C2C12 SSPN-HiBiT myoblasts were seeded at 500 cells per well in 50 μl of growth media in 384-well white, clear bottom microplates (Greiner) and incubated for 3 days. Upon reaching confluency, the growth media was replaced with 50 μl of differentiation media consisting of phenol-red free DMEM with 2% horse serum (Sigma-Aldrich) using an EL406 combination washer dispenser (Biotek). At day 2 of differentiation, the media on the cells was aspirated, left with a residual volume of 10 μl, and replaced with 30 μl of fresh differentiation media. 0.5 μl of small molecule in DMSO or DMSO alone (for vehicle and positive control wells) were added to each well using a Biomek Fx (Beckman). To ensure proper mixing of the DMSO, 50 μl of additional differentiation media was added to all wells except the positive control treated wells. The final concentration of compound in each treated well was 0.5-10 μM in 0.55% DMSO and 0.55% DMSO only for vehicle. After 48 hrs of incubation, the plate was washed with phenol red-free DMEM, aspirated, and left with a residual volume of 5 μl using EL406 combination washer dispenser. After the wash, 25 μl of differentiation media containing 12 μM DRAQ5 nuclear stain was added to reach a final concentration 10 μM in each well and incubated for 15 min at 37° C. with 5% CO2. The cells were imaged using ImageXpress Micro Confocal High Content Imaging System (Molecular Devices). The nuclei count of imaged cells were determined using a custom module analysis in MetaXpress Analysis software (Molecular Devices). After imaging and analysis, the plate was aspirated, left with a residual volume of 5 μl and placed at −80° C. for 2-24 hrs. The plate was thawed at RT and 25 μl of PBS was added, followed by 30 μl of Nano-Glo HiBiT Lytic Detection working solution prepared according manufacturer recommendations. Luminescence was measured using the EnVision plate reader and the signal of each well was normalized to nuclei count and signal from vehicle-treated controls.
In order to effectively test new analogues, we created method for detecting SSPN protein in cells, e.g., SSPN-HiBiT. SSPN-HiBiT based on a murine C2C12 cell line expressing endogenous SSPN protein with an N-term fusion protein called the HiBiT, an 11 amino acid subunit of a luciferase enzyme (FIG. 10a). The SSPN-HiBiT protein is quantified through addition of substrate and a larger subunit of the luciferase enzyme to catalyze the formation of luminescent signal. […]

Compound | increase in SSPN-HiBiT levels
O=C1Nc2ccc(I)cc2/C1=C/c1cc(Br)c(O)c(Br)c1 [GW5074, reference compound] | 1.35 fold

Same assay, conditions: Table 1; *p<0.05

Compound | SSPN-HiBiT, fold change over vehicle
CCN(CC)c1ccc2cc(C(=O)Nc3nnc(C(=O)N4CCOCC4)[nH]3)cnc2c1 | 1.34* fold change over vehicle
CCN(CC)c1ccc2cc(C(=O)Nc3ccc(C(=O)N4CCN(C)CC4)cc3)cnc2c1 | 1.47* fold change over vehicle
CCN(CC)C(=O)c1ccc(NC(=O)c2cnc3cc(N(CC)CC)ccc3c2)cc1 | 1.75* fold change over vehicle
Nc1ccc2ncc(C(=O)Nc3ccc(C(=O)N4CCCOCC4)cc3)cc2c1 [N-(4-(1,4-oxazepane-4-carbonyl)phenyl)-6-aminoquinoline-3-carboxamide hydrochloride] | 1.09* fold change over vehicle
CCN(CC)c1ccc2cc(C(=O)Nc3ccc(C(=O)N4CCCCCC4)cc3)cnc2c1 | 1.62* fold change over vehicle
COc1ccc2c(c1)CC(C(=O)Nc1ccc(C(=O)N3CCN(C)CC3)cc1)C(=O)N2 (stereo not drawn) | 1.46* fold change over vehicle
CCN(CC)C(=O)c1ccc(NC(=O)c2cc3cc(OC)ccc3[nH]c2=O)cc1 | 1.51* fold change over vehicle
CCN(CC)C(=O)c1ccc(NC(=O)c2cc3ccccc3nc2C)cc1 [N-(4-(diethylcarbamoyl)phenyl)-2-methylquinoline-3-carboxamide] | 1.08* fold change over vehicle
COc1ccc2[nH]c(=O)c(C(=O)Nc3ccc(C(=O)N4CCCCCC4)cc3)cc2c1 | 1.03 fold change over vehicle
COc1ccc2[nH]c(=O)c(C(=O)Nc3ccc(C(=O)N4CCCOCC4)cc3)cc2c1 [OT-9m, N-(4-(1,4-oxazepane-4-carbonyl)phenyl)-6-methoxy-2-oxo-1,2-dihydroquinoline-3-carboxamide] | 2.4* fold change over vehicle
CCN(CC)C(=O)c1ccc(NC(=O)c2cc3ccc(F)cc3[nH]c2=O)cc1 [N-(4-(diethylcarbamoyl)phenyl)-7-fluoro-2-oxo-1,2-dihydroquinoline-3-carboxamide] | 1.45* fold change over vehicle
CCN(CC)C(=O)c1ccc(NC(=O)c2c(C)c3ccccc3[nH]c2=O)cc1 [N-(4-(diethylcarbamoyl)phenyl)-4-methyl-2-oxo-1,2-dihydroquinoline-3-carboxamide] | 1.21* fold change over vehicle
COc1ccc2nc(C)c(C(=O)Nc3ccc(C(=O)N4CCCCCC4)cc3)cc2c1 [N-(4-(azepane-1-carbonyl)phenyl)-6-methoxy-2-methylquinoline-3-carboxamide] | 1.4* fold change over vehicle
COc1ccc2nc(C)c(C(=O)Nc3ccc(C(=O)N4CCCOCC4)cc3)cc2c1 | 1.22* fold change over vehicle
CCN(CC)c1ccc2cc(C(=O)Nc3ccc(C(=O)N4CCCOCC4)cc3)cnc2c1 | 1.3* fold change over vehicle

Same assay, conditions: Table 2; *p<0.05

Compound | SSPN-HiBiT, fold change over vehicle
Cc1cc2cc(C#N)c(OCC(=O)c3ccc(F)cc3F)nc2cc1C | 1.22* fold change over vehicle
Cc1cc2cc(C#N)c(OCC(=O)c3ccc(O)cc3)nc2cc1C | 1.21 fold change over vehicle
Cc1cc(C)c(C#N)c(OCC(=O)c2ccc(N(C)C)cc2)n1 [2-(2-(4-(dimethylamino)phenyl)-2-oxoethoxy)-4,6-dimethylnicotinonitrile] | 1.09* fold change over vehicle
Cc1cc(C)c2nc(OCC(=O)c3ccc(N(C)C)cc3)c(C#N)cc2c1 [2-(2-(4-(dimethylamino)phenyl)-2-oxoethoxy)-6,8-dimethylquinoline-3-carbonitrile] | 1.3* fold change over vehicle
Cc1cc2cc(C#N)c(S(=O)(=O)CC(=O)c3ccc(F)cc3)nc2cc1C | 1.23* fold change over vehicle
Cc1cc2cc(C#N)c(OCC(=O)c3ccc(N(C)C)cc3)nc2cc1C [2-(2-(4-(dimethylamino)phenyl)-2-oxoethoxy)-6,7-dimethylquinoline-3-carbonitrile] | 1.04* fold change over vehicle
COc1ccc(C(=O)COc2nc3cc(C)c(C)cc3cc2C#N)cc1 | 1.27* fold change over vehicle
Cc1cc2cc(C#N)c(SCC(=O)c3ccc(F)cc3)nc2cc1C [2-((2-(4-fluorophenyl)-2-oxoethyl)thio)-6,7-dimethylquinoline-3-carbonitrile] | 1.48* fold change over vehicle
